Patent US20050261292A1, “Pharmaceutical composition containing N-sulfamoyl-N'-arylpiperazines for the treatment or inhibition of obesity and related conditions” (Solvay Pharmaceuticals GmbH, priority 2004, published 2005)
Where a name gives a salt, the structure may show the parent alone.

System: dietary obese female Wistar rats
Test: Chronic influence on food and water intake and body weight gain in vivo (carcass composition, plasma parameters)
Design: species or system rat
Conditions: 28 days, mean ± SEM; for Plasma glucose / Plasma insulin / Plasma leptin: plasma day 29
Procedure: 4. Chronic Influence on Food and Water Intake and Body Weight Gain in vivo
Female Wistar rats (weight range 250-300 g; Charles River, Margate, Kent) were housed in pairs in polypropylene cages with solid floors and sawdust bedding at a temperature of 21±4° C. and 55±20% humidity. Animals were maintained on a reverse phase light-dark cycle (lights off for 8 hours from 10.00-18.00 h) during which time the room was illuminated by red light. Animals had free access to powdered high fat diet (VRF1 plus 20% lard), ground chocolate, ground peanuts and tap water at all times. The three different diets were contained in separate glass feeding jars with aluminium lids (Solmedia Laboratory Suppliers, Romford, Essex). […] Animals were housed in pairs for twelve weeks. At least two weeks before the start of the baseline readings, animals were housed individually in polypropylene cages with wire grid floors to enable the food intake of each rat to be recorded. Polypropylene trays with cage pads were placed beneath each cage to detect any food spillage.
At the start of the study, animals were weighed (to the nearest 0.1 g using an electronic top-pan balance) and allocated into 6 weight-matched treatment groups, each containing 10 animals. Following a 7 day baseline run-in period, during which time all animals were dosed orally once a day with vehicle (1% Tylose MH50, 0.1% poloxamer 188), rats were given vehicle or test compound of Formula I for 28 days as described in Table 4 below: […]
The test substance of example 2 was suspended in 1% Tylose MH50, 0.1% poloxamer 188 and administered by oral gavage (2 ml/kg). All dosing occurred at the onset of the 8 hours dark period (spanning the period immediately before and after lights out). The second treatments were given 4 hours after the first. Rats, feeding jars and water bottles were weighed (to the nearest 0.1 g) every day at the time of administration of vehicle or test substance. At each reading, the tray below each cage was examined for spilt food, which was returned to the appropriate jar before weighing. However, spillage of food from the feeding jars was negligible. Variations in body weight and energy levels of the different types of food were accounted for by expressing the food intake results in terms of kJ/kg rat weight. Water intake results were expressed in g/kg.
Animals were killed at the end of the study (by CO2 to minimize any fluid loss) on day 29 and blood samples (5 ml whole blood/animal) were collected by cardiac puncture. Plasma was separated by centrifugation and stored at −75° C. until analysis. Following blood collection carcasses were weighed, frozen and stored at −75° C. for body composition analysis. Body fat, protein, water and ash levels of the carcasses were determined using standard chemical analysis techniques. Only fat, protein, water and ash content were measured as other components (mainly carbohydrate) form less than 2% of total body composition.
Carcasses were individually milled at the temperature of liquid nitrogen, mixed and two representative samples taken. Carcass water was determined by freeze-drying the samples to constant weight. Carcass fat was determined on the freeze-dried samples using a modified Soxhlet extraction protocol (petroleum ether at 40-60° C.) with a Foss Soxtec® HT2 system (Foss UK Ltd, Wheldrake, UK) according to the manufacturers recommended protocol. Carcass protein was determined using a micro-Kjeldahl procedure on the freeze-dried samples using a Foss 2012® digestion block and Foss 2200® distilling unit (Foss UK Ltd). Residual carcass ash was determined by firing the freeze-dried samples at high temperatures using a muffle ashing furnace. Repeat determinations of the chemical analysis parameters were performed as necessary (e.g. if the duplicate samples differed by more than 1%).

[1] = 30 mg/kg po twice daily (0 h, 4 h)
[2] = 50 mg/kg po twice daily (0 h, 4 h)

With `NS(=O)(=O)N1CCN(c2ccccc2)CC1` [Example 2, N-Sulfamoyl-N′-phenylpiperazine hydrochloride] the “Carcass ash, mean percent final body weight” value [1] was 3.24 ± 0.12%, the “Carcass ash, mean weight per rat” value [1] was 12.13 ± 0.48 g and the “Carcass fat, mean percent final body weight” value [1] was 22.8 ± 1.0 %. For the same compound, the “Carcass fat, mean weight per rat” value [1] was 87.9 ± 3.8 g, the “Carcass protein, mean percent final body weight” value [1] was 17.4 ± 0.3*° % and the “Carcass protein, mean weight per rat” value [1] was 64.8 ± 1.2 g. The “Carcass water, mean percent final body weight” value [1] was 55.2 ± 0.8 %, the “Carcass water, mean weight per rat” value [1] was 205.8 ± 3.1 g and the “Carcass weight, mean per rat” value [1] was 375.4 ± 4.8 g. For the same compound, the Plasma glucose (30 mg/kg po twice daily) was 8.6 ± 0.5 mM, the Plasma insulin (30 mg/kg po twice daily) was 1.53 ± 0.33 ng/mL and the Plasma leptin (30 mg/kg po twice daily) was 68.8 ± 9.4 ng/mL. The “Carcass ash, mean percent final body weight” value [2] was 3.14 ± 0.1%, the “Carcass ash, mean weight per rat” value [2] was 11.38 ± 0.29 g and the “Carcass fat, mean percent final body weight” value [2] was 22.3 ± 1.8 %. The “Carcass fat, mean weight per rat” value [2] was 83.6 ± 6.9 g, the “Carcass protein, mean percent final body weight” value [2] was 17.3 ± 0.4*° % and the “Carcass protein, mean weight per rat” value [2] was 62.8 ± 1.3 g. For the same compound, the “Carcass water, mean percent final body weight” value [2] was 55.7 ± 1.2 %, the “Carcass water, mean weight per rat” value [2] was 202.2 ± 3.6 g and the “Carcass weight, mean per rat” value [2] was 365.6 ± 3.8 g. For the same compound, the Plasma glucose (50 mg/kg po twice daily) was 7.9 ± 0.5 mM, the Plasma insulin (50 mg/kg po twice daily) was 1.40 ± 0.41 ng/mL and the Plasma leptin (50 mg/kg po twice daily) was 58.8 ± 11.6 ng/mL.
